Data taken from patent US9575064B2, “Methods relating to testing for lysosomal storage disorders” (PerkinElmer Health Sciences, Inc., priority 2014, dated 2017).

How the values were obtained:
[1] = cited from earlier work
[2] = target: T1, galactocerebrosidase (GALC) (Homo sapiens, UniProt P54803); conditions: Zhang et al; Li et al; cited from earlier work
T1 sequence (P54803 43-685): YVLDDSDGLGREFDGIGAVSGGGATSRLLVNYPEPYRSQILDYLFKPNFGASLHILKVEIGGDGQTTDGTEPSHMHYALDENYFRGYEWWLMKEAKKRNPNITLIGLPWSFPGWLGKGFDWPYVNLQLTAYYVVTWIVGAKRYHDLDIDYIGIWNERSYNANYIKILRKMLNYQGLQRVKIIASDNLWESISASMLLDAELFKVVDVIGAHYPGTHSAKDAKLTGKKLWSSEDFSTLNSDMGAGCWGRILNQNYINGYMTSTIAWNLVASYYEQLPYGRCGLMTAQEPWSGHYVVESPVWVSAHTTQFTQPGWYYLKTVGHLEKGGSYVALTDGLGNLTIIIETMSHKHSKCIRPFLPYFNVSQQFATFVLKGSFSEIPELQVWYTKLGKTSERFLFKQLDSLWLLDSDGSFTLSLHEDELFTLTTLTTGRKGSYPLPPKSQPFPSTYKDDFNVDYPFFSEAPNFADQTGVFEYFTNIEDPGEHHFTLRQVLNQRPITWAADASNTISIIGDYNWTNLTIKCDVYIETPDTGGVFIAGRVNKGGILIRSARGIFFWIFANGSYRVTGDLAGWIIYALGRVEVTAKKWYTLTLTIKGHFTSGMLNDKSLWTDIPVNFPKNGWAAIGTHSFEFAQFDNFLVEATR

[3] = target: T2, acid β-glucocerebrosidase (ABG) (Homo sapiens, UniProt P04062); test: 6-plex DBS enzyme activity assay (FIA-MS/MS) with and without sodium oleate: ABG; format: biochemical
T2 construct: from tissue; host or cells: human dried blood spots (CDC control DBS: pooled cord blood, leukocyte-reduced adult blood)
T2 sequence (P04062 40-536): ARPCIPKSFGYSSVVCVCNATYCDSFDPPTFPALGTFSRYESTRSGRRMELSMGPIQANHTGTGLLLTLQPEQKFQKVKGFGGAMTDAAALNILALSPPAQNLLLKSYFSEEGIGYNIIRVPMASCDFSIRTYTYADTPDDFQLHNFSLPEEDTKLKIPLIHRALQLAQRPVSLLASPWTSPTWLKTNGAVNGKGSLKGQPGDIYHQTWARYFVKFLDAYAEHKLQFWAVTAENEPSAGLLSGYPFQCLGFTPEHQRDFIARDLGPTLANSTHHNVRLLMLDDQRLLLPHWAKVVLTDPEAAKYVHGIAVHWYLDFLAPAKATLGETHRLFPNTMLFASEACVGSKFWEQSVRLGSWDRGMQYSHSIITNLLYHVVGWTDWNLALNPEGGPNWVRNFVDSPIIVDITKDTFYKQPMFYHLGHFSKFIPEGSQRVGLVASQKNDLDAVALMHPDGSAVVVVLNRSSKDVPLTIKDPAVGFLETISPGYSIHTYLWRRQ

[4] = target: T3, acid sphingomylenase (ASM) (Homo sapiens, UniProt P17405); test: 6-plex DBS enzyme activity assay (FIA-MS/MS) with and without sodium oleate: ASM; format: biochemical
T3 construct: from tissue; host or cells: human dried blood spots (CDC control DBS: pooled cord blood, leukocyte-reduced adult blood)
T3 sequence (P17405 47-631): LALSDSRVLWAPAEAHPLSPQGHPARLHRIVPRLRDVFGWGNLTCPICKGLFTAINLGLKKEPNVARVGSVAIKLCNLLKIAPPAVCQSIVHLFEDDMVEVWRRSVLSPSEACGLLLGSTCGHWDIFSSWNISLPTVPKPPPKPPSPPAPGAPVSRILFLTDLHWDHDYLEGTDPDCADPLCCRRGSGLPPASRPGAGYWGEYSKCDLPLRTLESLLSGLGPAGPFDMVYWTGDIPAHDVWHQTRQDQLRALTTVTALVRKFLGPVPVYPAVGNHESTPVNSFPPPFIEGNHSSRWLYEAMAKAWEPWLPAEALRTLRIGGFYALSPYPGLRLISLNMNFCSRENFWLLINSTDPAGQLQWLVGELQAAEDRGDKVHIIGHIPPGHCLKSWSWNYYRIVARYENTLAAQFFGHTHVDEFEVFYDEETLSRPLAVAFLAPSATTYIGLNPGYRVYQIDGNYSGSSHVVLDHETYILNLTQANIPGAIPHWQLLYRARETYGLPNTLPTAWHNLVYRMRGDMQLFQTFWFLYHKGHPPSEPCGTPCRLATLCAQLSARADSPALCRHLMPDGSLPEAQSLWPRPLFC

α-L-iduronidase (IDUA) = target: T4, α-L-iduronidase (IDUA) (Homo sapiens, UniProt P35475); test: 6-plex DBS enzyme activity assay (FIA-MS/MS) with and without sodium oleate: IDUA; format: biochemical
T4 construct: from tissue; host or cells: human dried blood spots (CDC control DBS: pooled cord blood, leukocyte-reduced adult blood)
T4 sequence (P35475 28-653): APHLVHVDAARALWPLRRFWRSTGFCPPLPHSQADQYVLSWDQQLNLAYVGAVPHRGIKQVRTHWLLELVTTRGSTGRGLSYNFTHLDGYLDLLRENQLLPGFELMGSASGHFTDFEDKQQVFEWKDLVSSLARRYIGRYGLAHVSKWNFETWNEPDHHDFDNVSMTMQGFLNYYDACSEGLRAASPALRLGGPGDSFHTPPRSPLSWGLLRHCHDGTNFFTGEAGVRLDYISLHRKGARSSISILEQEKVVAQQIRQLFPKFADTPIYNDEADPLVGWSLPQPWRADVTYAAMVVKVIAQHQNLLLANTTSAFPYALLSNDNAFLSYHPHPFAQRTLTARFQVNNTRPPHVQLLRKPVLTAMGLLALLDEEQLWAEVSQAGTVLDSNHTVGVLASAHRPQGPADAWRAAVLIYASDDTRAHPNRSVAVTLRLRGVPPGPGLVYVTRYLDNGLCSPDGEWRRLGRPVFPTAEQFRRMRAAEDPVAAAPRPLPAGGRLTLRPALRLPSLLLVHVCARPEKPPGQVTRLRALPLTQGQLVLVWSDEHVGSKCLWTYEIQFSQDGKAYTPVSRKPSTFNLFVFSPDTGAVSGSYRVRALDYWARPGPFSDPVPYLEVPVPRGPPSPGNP

[5] = target: T5, acid α-galactosidase A (GLA) (Homo sapiens, UniProt P06280); test: 6-plex DBS enzyme activity assay (FIA-MS/MS) with and without sodium oleate: GLA; format: biochemical
T5 construct: from tissue; host or cells: human dried blood spots (CDC control DBS: pooled cord blood, leukocyte-reduced adult blood)
T5 sequence (P06280 32-429): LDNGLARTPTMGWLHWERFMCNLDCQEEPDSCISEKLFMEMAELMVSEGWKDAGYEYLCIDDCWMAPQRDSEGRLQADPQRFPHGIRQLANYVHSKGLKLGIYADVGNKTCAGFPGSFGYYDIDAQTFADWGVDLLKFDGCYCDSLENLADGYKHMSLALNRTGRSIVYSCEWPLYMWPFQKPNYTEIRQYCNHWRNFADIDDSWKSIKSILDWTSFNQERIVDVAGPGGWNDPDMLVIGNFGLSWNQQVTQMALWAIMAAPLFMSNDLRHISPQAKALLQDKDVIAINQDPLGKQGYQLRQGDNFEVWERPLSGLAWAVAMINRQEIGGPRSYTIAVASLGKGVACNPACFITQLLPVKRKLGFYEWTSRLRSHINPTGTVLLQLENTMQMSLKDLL

acid α-glucosidase (GAA) = target: T6, acid α-glucosidase (GAA) (Homo sapiens, UniProt P10253); test: 6-plex DBS enzyme activity assay (FIA-MS/MS) with and without sodium oleate: GAA; format: biochemical
T6 construct: from tissue; host or cells: human dried blood spots (CDC control DBS: pooled cord blood, leukocyte-reduced adult blood)

[6] = target: T1, galactocerebrosidase (GALC); test: 6-plex DBS enzyme activity assay (FIA-MS/MS) with and without sodium oleate: GALC; format: biochemical; parameters: from tissue; host or cells: human dried blood spots (CDC control DBS: pooled cord blood, leukocyte-reduced adult blood)
[7] = CDC High Control DBS, with sodium oleate
[8] = CDC High Control DBS, with vs without sodium oleate
[9] = CDC Low Control DBS, with sodium oleate
[10] = CDC Low Control DBS, with vs without sodium oleate
[11] = CDC Medium Control DBS, with sodium oleate
[12] = CDC Medium Control DBS, with vs without sodium oleate
[13] = Med/Low Control DBS ratio, with vs without sodium oleate
[14] = addition of sodium oleate, stated for the ceramides
[15] = two assays differing only by addition or lack of sodium oleate

CCCCCCCC/C=C\CCCCCCCC(=O)O [oleic acid]
solubility in aqueous buffers [1]: very difficult to dissolve | effect on GALC enzyme [2]: enhancer

CCCCCCCC/C=C\CCCCCCCC(=O)[O-].[Na+] [sodium oleate]
Enzyme Activity ABG [3, 7]: 11.46 µmol/L/h | Sodium oleate gain ABG [3, 8]: 162% | Enzyme Activity ABG [3, 9]: 0.95 µmol/L/h | Sodium oleate gain ABG [3, 10]: 159% | Enzyme Activity ABG [3, 11]: 5.44 µmol/L/h | Sodium oleate gain ABG [3, 12]: 175% | Sodium oleate gain of Med/Low ratio ABG [3, 13]: 120% | widening of the gap between Low Control DBS and Medium Control DBS, ABG [3, 14]: approximately 25% | enzyme activity ABG when sodium oleate was present [3, 15]: improved | CDC Med/Low Control DBS activity ratio ABG ([3]; with sodium oleate): 5.8 | Enzyme Activity ASM [4, 7]: 2.54 µmol/L/h | Sodium oleate gain ASM [4, 8]: 117% | Enzyme Activity ASM [4, 9]: 0.16 µmol/L/h | Sodium oleate gain ASM [4, 10]: 95% | Enzyme Activity ASM [4, 11]: 1.29 µmol/L/h | Sodium oleate gain ASM [4, 12]: 122% | Sodium oleate gain of Med/Low ratio ASM [4, 13]: 136% | widening of the gap between Low Control DBS and Medium Control DBS, ASM [4, 14]: approximately 25% | enzyme activity ASM when sodium oleate was present [4, 15]: improved | CDC Med/Low Control DBS activity ratio ASM ([4]; with sodium oleate): 8.0 | Enzyme Activity IDUA (α-L-iduronidase (IDUA); [7]): 11.95 µmol/L/h | Sodium oleate gain IDUA (α-L-iduronidase (IDUA); [8]): 111% | Enzyme Activity IDUA (α-L-iduronidase (IDUA); [9]): 0.72 µmol/L/h | Sodium oleate gain IDUA (α-L-iduronidase (IDUA); [10]): 107% | Enzyme Activity IDUA (α-L-iduronidase (IDUA); [11]): 5.86 µmol/L/h | Sodium oleate gain IDUA (α-L-iduronidase (IDUA); [12]): 116% | Sodium oleate gain of Med/Low ratio IDUA (α-L-iduronidase (IDUA); [13]): 114% | CDC Med/Low Control DBS activity ratio IDUA (α-L-iduronidase (IDUA); with sodium oleate): 8.1 | Enzyme Activity GLA [5, 7]: 13.15 µmol/L/h | Sodium oleate gain GLA [5, 8]: 104% | Enzyme Activity GLA [5, 9]: 1.00 µmol/L/h | Sodium oleate gain GLA [5, 10]: 95% | Enzyme Activity GLA [5, 11]: 6.57 µmol/L/h | Sodium oleate gain GLA [5, 12]: 106% | Sodium oleate gain of Med/Low ratio GLA [5, 13]: 114% | CDC Med/Low Control DBS activity ratio GLA ([5]; with sodium oleate): 6.5 | Enzyme Activity GAA (acid α-glucosidase (GAA); [7]): 13.48 µmol/L/h | Sodium oleate gain GAA (acid α-glucosidase (GAA); [8]): 110% | Enzyme Activity GAA (acid α-glucosidase (GAA); [9]): 0.99 µmol/L/h | Sodium oleate gain GAA (acid α-glucosidase (GAA); [10]): 105% | Enzyme Activity GAA (acid α-glucosidase (GAA); [11]): 7.08 µmol/L/h | Sodium oleate gain GAA (acid α-glucosidase (GAA); [12]): 115% | Sodium oleate gain of Med/Low ratio GAA (acid α-glucosidase (GAA); [13]): 115% | CDC Med/Low Control DBS activity ratio GAA (acid α-glucosidase (GAA); with sodium oleate): 7.2 | Enzyme Activity GALC [6, 7]: 6.72 µmol/L/h | Sodium oleate gain GALC [6, 8]: 126% | Enzyme Activity GALC [6, 9]: 0.45 µmol/L/h | Sodium oleate gain GALC [6, 10]: 118% | Enzyme Activity GALC [6, 11]: 3.22 µmol/L/h | Sodium oleate gain GALC [6, 12]: 133% | Sodium oleate gain of Med/Low ratio GALC [6, 13]: 117% | widening of the gap between Low Control DBS and Medium Control DBS, GALC [6, 14]: approximately 25% | enzyme activity GALC when sodium oleate was present [6, 15]: improved | CDC Med/Low Control DBS activity ratio GALC ([6]; with sodium oleate): 7.1
